Experimental data published in ChEMBL document CHEMBL5126579, “Design and synthesis of efficient fluororethylene-peptidomimetic inhibitors of dipeptidyl peptidase III (DPP3)” (Bioorg Med Chem, 2022).

Legend:
Dipeptidyl peptidase 3 [1] = target: T1, Dipeptidyl peptidase 3 (Homo sapiens, UniProt Q9NY33); assay: Inhibition of DPP3 (unknown origin)
T1 sequence (Q9NY33 whole entry): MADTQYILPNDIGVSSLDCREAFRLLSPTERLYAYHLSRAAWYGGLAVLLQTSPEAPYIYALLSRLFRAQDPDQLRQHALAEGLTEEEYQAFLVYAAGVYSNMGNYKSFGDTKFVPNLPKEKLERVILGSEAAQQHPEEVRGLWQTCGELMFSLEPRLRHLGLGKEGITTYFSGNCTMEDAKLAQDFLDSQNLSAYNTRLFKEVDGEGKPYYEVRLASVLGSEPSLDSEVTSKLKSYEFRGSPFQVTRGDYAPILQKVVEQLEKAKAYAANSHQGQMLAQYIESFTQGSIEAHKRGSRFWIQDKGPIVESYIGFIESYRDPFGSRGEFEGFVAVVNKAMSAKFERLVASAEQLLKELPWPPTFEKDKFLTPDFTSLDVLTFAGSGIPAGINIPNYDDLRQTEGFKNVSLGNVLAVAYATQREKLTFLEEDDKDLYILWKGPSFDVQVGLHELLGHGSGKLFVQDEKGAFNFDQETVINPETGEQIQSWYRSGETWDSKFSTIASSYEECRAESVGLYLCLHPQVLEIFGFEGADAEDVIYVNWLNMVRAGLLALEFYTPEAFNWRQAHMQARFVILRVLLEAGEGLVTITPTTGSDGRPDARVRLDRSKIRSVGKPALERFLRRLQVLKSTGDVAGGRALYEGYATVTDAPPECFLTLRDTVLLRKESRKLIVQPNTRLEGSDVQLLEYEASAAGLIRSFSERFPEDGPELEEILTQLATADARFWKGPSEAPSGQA

Dipeptidyl peptidase 3 [2] = target: T1, Dipeptidyl peptidase 3; assay: Inhibition of human DPP3 using Arg-Arg-2-naphthylamide as substrate assessed as reduction in release of 2-naphthylamine preincubated for 10 mins followed by substrate addition and measured for 30 mins by fluorescence based analysis
Dipeptidyl peptidase 3 [3] = target: T1, Dipeptidyl peptidase 3; assay: Competitive inhibition of DPP3 (unknown origin) using Arg-Arg-2-naphthylamide as substrate

Row | IC50 (Dipeptidyl peptidase 3 [2]) | Molecule | other results
1 | – | H-VVFPW-OH | IC50 (Dipeptidyl peptidase 3 [1]): 0.13 µM
2 | – | CC(C)[C@H](N)C(=O)N[C@@H](C(C)C)[C@H](O)N[C@@H](Cc1ccccc1)C(=O)N1CCC[C@H]1C(=O)N[C@@H](Cc1c[nH]c2ccccc12)C(=O)O | IC50 (Dipeptidyl peptidase 3 [1]): 8.5 µM
3 | 7.7 µM | CC(C)[C@H](N)C(=O)N[C@H](/C(F)=C/[C@@H](Cc1ccccc1)C(=O)N1CCCC[C@H]1C(=O)N[C@@H](Cc1c[nH]c2ccccc12)C(=O)O)C(C)C | –
4 | – | Cc1cc(=O)c2c(cc(O)c3c4c(O)cccc4c(=O)c32)c1=O | IC50 (Dipeptidyl peptidase 3 [3]): 1.44 µM
5 | 4.6 µM | CC(C)[C@H](N)C(=O)N[C@H](/C(F)=N/[C@@H](Cc1ccccc1)C(=O)N1CCC[C@H]1C(=O)N[C@@H](Cc1c[nH]c2ccccc12)C(=O)O)C(C)C | –
6 | 22.5 µM | CC(C)[C@H](NC(=O)[C@@H](N)C(C)(C)C)/C(F)=C/[C@@H](Cc1ccccc1)C(=O)N1CCC[C@H]1C(=O)N[C@@H](Cc1c[nH]c2ccccc12)C(=O)O | –
7 | 21 µM | CC(C)[C@H](NC(=O)[C@@H](N)C(C)(C)C)/C(F)=C/[C@@H](Cc1ccccc1)C(=O)N1CCCC[C@H]1C(=O)N[C@@H](Cc1c[nH]c2ccccc12)C(=O)O | –
8 | – | CC1C(=O)c2cc(O)c3c(c2C(O)C1O)C(=O)c1cccc(O)c1-3 (stereo not drawn) | IC50 (Dipeptidyl peptidase 3 [3]): 74 µM
